According to PubChem BioAssay (NCI):
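How tested: cells in 96-well plates exposed to compound for 48 hours at five concentrations. TGI marks complete inhibition of growth.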

What was measured:
Assay in all cases: NCI-60 cell line screen, 48 h
786-0 renal = test system: 786-0 renal
A498 renal = test system: A498 renal
A549 NSCLC = test system: A549 NSCLC
ACHN renal = test system: ACHN renal
BT-549 breast = test system: BT-549 breast
CAKI-1 renal = test system: CAKI-1 renal
CCRF-CEM leukemia = test system: CCRF-CEM leukemia
COLO 205 colon = test system: COLO 205 colon
DU-145 prostate = test system: DU-145 prostate
EKVX NSCLC = test system: EKVX NSCLC
HCC-2998 colon = test system: HCC-2998 colon
HCT-116 colon = test system: HCT-116 colon
HCT-15 colon = test system: HCT-15 colon
HL-60(TB) leukemia = test system: HL-60(TB) leukemia
HOP-62 NSCLC = test system: HOP-62 NSCLC
HOP-92 NSCLC = test system: HOP-92 NSCLC
HS 578T breast = test system: HS 578T breast
HT29 colon = test system: HT29 colon
IGROV1 ovarian = test system: IGROV1 ovarian
K-562 leukemia = test system: K-562 leukemia
KM12 colon = test system: KM12 colon
LOX IMVI melanoma = test system: LOX IMVI melanoma
M14 melanoma = test system: M14 melanoma
MALME-3M melanoma = test system: MALME-3M melanoma
MCF7 breast = test system: MCF7 breast
MDA-MB-231 breast = test system: MDA-MB-231 breast
MDA-MB-435 = test system: MDA-MB-435
MDA-N = test system: MDA-N
MOLT-4 leukemia = test system: MOLT-4 leukemia
NCI-H226 lung = test system: NCI-H226 lung
NCI-H23 lung = test system: NCI-H23 lung
NCI-H460 lung = test system: NCI-H460 lung
NCI-H522 lung = test system: NCI-H522 lung
NCI/ADR-RES ovarian = test system: NCI/ADR-RES ovarian
OVCAR-3 ovarian = test system: OVCAR-3 ovarian
OVCAR-4 ovarian = test system: OVCAR-4 ovarian
OVCAR-5 ovarian = test system: OVCAR-5 ovarian
OVCAR-8 ovarian = test system: OVCAR-8 ovarian
PC-3 prostate = test system: PC-3 prostate
RPMI-8226 leukemia = test system: RPMI-8226 leukemia
RXF 393 renal = test system: RXF 393 renal
SF-268 CNS = test system: SF-268 CNS
SF-295 CNS = test system: SF-295 CNS
SF-539 CNS = test system: SF-539 CNS
SK-MEL-2 melanoma = test system: SK-MEL-2 melanoma
SK-MEL-28 melanoma = test system: SK-MEL-28 melanoma
SK-MEL-5 melanoma = test system: SK-MEL-5 melanoma
SK-OV-3 ovarian = test system: SK-OV-3 ovarian
SN12C renal = test system: SN12C renal
SNB-19 CNS = test system: SNB-19 CNS
SNB-75 CNS = test system: SNB-75 CNS
SR leukemia = test system: SR leukemia
SW-620 colon = test system: SW-620 colon
T-47D breast = test system: T-47D breast
TK-10 renal = test system: TK-10 renal
U251 CNS = test system: U251 CNS
UACC-257 melanoma = test system: UACC-257 melanoma
UACC-62 melanoma = test system: UACC-62 melanoma
UO-31 renal = test system: UO-31 renal

Cc1ccccc1C(=O)N/N=C/c1ccc(Sc2nccn2C)c([N+](=O)[O-])c1
TGI (786-0 renal): > 100 µM
TGI (A498 renal): > 100 µM
TGI (A549 NSCLC): > 100 µM
TGI (ACHN renal): > 100 µM
TGI (BT-549 breast): > 100 µM
TGI (CAKI-1 renal): > 100 µM
TGI (CCRF-CEM leukemia): > 100 µM
TGI (COLO 205 colon): > 100 µM
TGI (DU-145 prostate): > 100 µM
TGI (EKVX NSCLC): > 100 µM
TGI (HCC-2998 colon): > 100 µM
TGI (HCT-116 colon): > 100 µM
TGI (HCT-15 colon): > 100 µM
TGI (HL-60(TB) leukemia): > 100 µM
TGI (HOP-62 NSCLC): > 100 µM
TGI (HOP-92 NSCLC): 88.2 µM
TGI (HS 578T breast): > 100 µM
TGI (HT29 colon): > 100 µM
TGI (IGROV1 ovarian): > 100 µM
TGI (K-562 leukemia): > 100 µM
TGI (KM12 colon): > 100 µM
TGI (LOX IMVI melanoma): > 100 µM
TGI (M14 melanoma): > 100 µM
TGI (MALME-3M melanoma): > 100 µM
TGI (MCF7 breast): > 100 µM
TGI (MDA-MB-231 breast): > 100 µM
TGI (MDA-MB-435): 81.1 µM
TGI (MDA-N): > 100 µM
TGI (MOLT-4 leukemia): > 100 µM
TGI (NCI-H226 lung): > 100 µM
TGI (NCI-H23 lung): > 100 µM
TGI (NCI-H460 lung): > 100 µM
TGI (NCI-H522 lung): > 100 µM
TGI (NCI/ADR-RES ovarian): > 100 µM
TGI (OVCAR-3 ovarian): > 100 µM
TGI (OVCAR-4 ovarian): > 100 µM
TGI (OVCAR-5 ovarian): > 100 µM
TGI (OVCAR-8 ovarian): > 100 µM
TGI (PC-3 prostate): > 100 µM
TGI (RPMI-8226 leukemia): > 100 µM
TGI (RXF 393 renal): > 100 µM
TGI (SF-268 CNS): > 100 µM
TGI (SF-295 CNS): > 100 µM
TGI (SF-539 CNS): > 100 µM
TGI (SK-MEL-2 melanoma): > 100 µM
TGI (SK-MEL-28 melanoma): > 100 µM
TGI (SK-MEL-5 melanoma): > 100 µM
TGI (SK-OV-3 ovarian): > 100 µM
TGI (SN12C renal): > 100 µM
TGI (SNB-19 CNS): > 100 µM
TGI (SNB-75 CNS): > 100 µM
TGI (SR leukemia): > 100 µM
TGI (SW-620 colon): > 100 µM
TGI (T-47D breast): > 100 µM
TGI (TK-10 renal): > 100 µM
TGI (U251 CNS): > 100 µM
TGI (UACC-257 melanoma): > 100 µM
TGI (UACC-62 melanoma): > 100 µM
TGI (UO-31 renal): > 100 µM

NC(=O)c1cc2ccc(O)cc2oc1=Nc1ccccc1
TGI (786-0 renal): > 100 µM
TGI (A498 renal): 68.1 µM
TGI (A549 NSCLC): > 100 µM
TGI (ACHN renal): > 100 µM
TGI (BT-549 breast): > 100 µM
TGI (CAKI-1 renal): > 100 µM
TGI (CCRF-CEM leukemia): > 100 µM
TGI (COLO 205 colon): 44 µM
TGI (DU-145 prostate): > 100 µM
TGI (EKVX NSCLC): > 100 µM
TGI (HCC-2998 colon): 78.8 µM
TGI (HCT-116 colon): > 100 µM
TGI (HCT-15 colon): > 100 µM
TGI (HL-60(TB) leukemia): 62.4 µM
TGI (HOP-62 NSCLC): > 100 µM
TGI (HOP-92 NSCLC): > 100 µM
TGI (HS 578T breast): > 100 µM
TGI (HT29 colon): > 100 µM
TGI (IGROV1 ovarian): > 100 µM
TGI (K-562 leukemia): > 100 µM
TGI (KM12 colon): > 100 µM
TGI (LOX IMVI melanoma): > 100 µM
TGI (M14 melanoma): > 100 µM
TGI (MALME-3M melanoma): > 100 µM
TGI (MCF7 breast): > 100 µM
TGI (MDA-MB-231 breast): > 100 µM
TGI (MDA-MB-435): > 100 µM
TGI (MDA-N): > 100 µM
TGI (MOLT-4 leukemia): 88.8 µM
TGI (NCI-H226 lung): 88.6 µM
TGI (NCI-H23 lung): 56 µM
TGI (NCI-H460 lung): > 100 µM
TGI (NCI-H522 lung): 77.9 µM
TGI (NCI/ADR-RES ovarian): > 100 µM
TGI (OVCAR-3 ovarian): > 100 µM
TGI (OVCAR-4 ovarian): > 100 µM
TGI (OVCAR-5 ovarian): > 100 µM
TGI (OVCAR-8 ovarian): > 100 µM
TGI (PC-3 prostate): > 100 µM
TGI (RPMI-8226 leukemia): 63.8 µM
TGI (RXF 393 renal): > 100 µM
TGI (SF-268 CNS): > 100 µM
TGI (SF-295 CNS): > 100 µM
TGI (SK-MEL-2 melanoma): 53 µM
TGI (SK-MEL-28 melanoma): > 100 µM
TGI (SK-MEL-5 melanoma): 69 µM
TGI (SK-OV-3 ovarian): > 100 µM
TGI (SN12C renal): 66 µM
TGI (SNB-19 CNS): > 100 µM
TGI (SNB-75 CNS): 68.3 µM
TGI (SR leukemia): 53.9 µM
TGI (SW-620 colon): > 100 µM
TGI (T-47D breast): 66.1 µM
TGI (TK-10 renal): > 100 µM
TGI (U251 CNS): > 100 µM
TGI (UACC-257 melanoma): > 100 µM
TGI (UACC-62 melanoma): > 100 µM
TGI (UO-31 renal): > 100 µM
